Results as given in ChEMBL document CHEMBL1201862, “PubChem BioAssay data set” (2004).
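In this assay, cells in 96-well plates receive the compound at five concentrations for 48 hours. Endpoints are linearly interpolated between the surrounding concentrations. The concentration for 50% growth inhibition is given as GI50.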 The source made the active and inactive calls. Rule as the data show it: active = GI50 up to about 1.1 µM and inactive = higher.

Tests used:
Assay in all cases: NCI anticancer screen, dose series, 48 h
786-0 = test system: 786-0
A549 = test system: A549
ACHN = test system: ACHN
CAKI-1 = test system: CAKI-1
CCRF-CEM = test system: CCRF-CEM
COLO 205 = test system: COLO 205
DLD-1 = test system: DLD-1
DMS-114 = test system: DMS-114
DMS-273 = test system: DMS-273
EKVX = test system: EKVX
HCC 2998 = test system: HCC 2998
HCT-116 = test system: HCT-116
HCT-15 = test system: HCT-15
HL-60 = test system: HL-60
HOP-18 = test system: HOP-18
HOP-62 = test system: HOP-62
HOP-92 = test system: HOP-92
HT-29 = test system: HT-29
IGROV-1 = test system: IGROV-1
K562 = test system: K562
KM-20L2 = test system: KM-20L2
KM12 = test system: KM12
LOX IMVI = test system: LOX IMVI
M14 = test system: M14
M19-MEL = test system: M19-MEL
MOLT-4 = test system: MOLT-4
Malme-3M = test system: Malme-3M
NCI-H226 = test system: NCI-H226
NCI-H23 = test system: NCI-H23
NCI-H460 = test system: NCI-H460
NCI-H522 = test system: NCI-H522
OVCAR-3 = test system: OVCAR-3
OVCAR-4 = test system: OVCAR-4
OVCAR-5 = test system: OVCAR-5
OVCAR-8 = test system: OVCAR-8
RPMI-8226 = test system: RPMI-8226
RXF 631 = test system: RXF 631
SF-268 = test system: SF-268
SF-295 = test system: SF-295
SF-539 = test system: SF-539
SK-MEL-28 = test system: SK-MEL-28
SK-MEL-2 = test system: SK-MEL-2
SK-MEL-5 = test system: SK-MEL-5
SK-OV-3 = test system: SK-OV-3
SN12C = test system: SN12C
SNB-19 = test system: SNB-19
SNB-75 = test system: SNB-75
SNB-78 = test system: SNB-78
SR = test system: SR
SW-620 = test system: SW-620
TK-10 = test system: TK-10
U-251 = test system: U-251
UACC-257 = test system: UACC-257
UACC-62 = test system: UACC-62
UO-31 = test system: UO-31
XF498 = test system: XF498
A498 = test system: A498
LXFL 529 = test system: LXFL 529
RXF 393 = test system: RXF 393

Question: What does the source list for `C(=C\C(Sc1ccccc1)c1ccccc1)/NNC1=NN=C(c2ccccc2)C(c2ccccc2)N1` (stereo not given)?
Answer: GI50 (786-0): 65.2 µM (inactive); GI50 (A549): 58.7 µM (inactive); GI50 (ACHN): 44.7 µM (inactive); GI50 (CAKI-1): 24.8 µM (inactive); GI50 (CCRF-CEM): 10.2 µM (inactive); GI50 (COLO 205): 32.2 µM (inactive); GI50 (DLD-1): 18.2 µM (inactive); GI50 (DMS-114): 35.8 µM (inactive); GI50 (DMS-273): 44.6 µM (inactive); GI50 (EKVX): 32.9 µM (inactive); GI50 (HCC 2998): 27.7 µM (inactive); GI50 (HCT-116): 42.2 µM (inactive); GI50 (HCT-15): 23.5 µM; GI50 (HL-60): 15.2 µM (inactive); GI50 (HOP-18): > 100 µM (inactive); GI50 (HOP-62): 16.5 µM (inactive); GI50 (HOP-92): 16.3 µM (inactive); GI50 (HT-29): 12 µM (inactive); GI50 (IGROV-1): 68.5 µM (inactive); GI50 (K562): 13.1 µM (inactive); GI50 (KM-20L2): 24.8 µM (inactive); GI50 (KM12): 58.3 µM (inactive); GI50 (LOX IMVI): 51.9 µM (inactive); GI50 (M14): 75 µM (inactive); GI50 (M19-MEL): 27.7 µM (inactive); GI50 (MOLT-4): 8.2 µM (inactive); GI50 (Malme-3M): 50 µM (inactive); GI50 (NCI-H226): 64.4 µM (inactive); GI50 (NCI-H23): 31.2 µM (inactive); GI50 (NCI-H460): 30.3 µM (inactive); GI50 (NCI-H522): 33.7 µM (inactive); GI50 (OVCAR-3): 33.4 µM (inactive); GI50 (OVCAR-4): 83 µM (inactive); GI50 (OVCAR-5): 35.5 µM (inactive); GI50 (OVCAR-8): 34.6 µM (inactive); GI50 (RPMI-8226): 16.4 µM (inactive); GI50 (RXF 631): 30.5 µM (inactive); GI50 (SF-268): > 100 µM (inactive); GI50 (SF-295): 32.7 µM (inactive); GI50 (SF-539): 65.3 µM (inactive); GI50 (SK-MEL-28): > 100 µM (inactive); GI50 (SK-MEL-2): 74 µM (inactive); GI50 (SK-MEL-5): 45.9 µM (inactive); GI50 (SK-OV-3): > 100 µM (inactive); GI50 (SN12C): 55 µM (inactive); GI50 (SNB-19): 48.6 µM (inactive); GI50 (SNB-75): > 100 µM (inactive); GI50 (SNB-78): > 100 µM (inactive); GI50 (SR): 25.9 µM (inactive); GI50 (SW-620): 21.8 µM (inactive); GI50 (TK-10): 61.2 µM (inactive); GI50 (U-251): 30 µM (inactive); GI50 (UACC-257): > 100 µM (inactive); GI50 (UACC-62): 21.5 µM (inactive); GI50 (UO-31): 18.8 µM (inactive); GI50 (XF498): 77.1 µM (inactive)

Question: How did the GI50 (786-0) turn out when `CCCCCCCCCCSS(=O)(=O)c1ccc(C)cc1` was run?
Answer: 6.1 µM (inactive)

Question: What about the GI50 (A498) of the same molecule?
Answer: 18.5 µM (inactive)

Question: And the GI50 (A549)?
Answer: 14.9 µM (inactive)

Question: And the GI50 (ACHN)?
Answer: 16.9 µM (inactive)

Question: What about the GI50 (CAKI-1) of the same molecule?
Answer: 15.9 µM (inactive)

Question: What about the GI50 (CCRF-CEM) of the same molecule?
Answer: 2.24 µM (inactive)

Question: And the GI50 (COLO 205)?
Answer: 14.1 µM (inactive)

Question: And the GI50 (DLD-1)?
Answer: 12.5 µM (inactive)

Question: What about the GI50 (DMS-114) of the same molecule?
Answer: 8.69 µM (inactive)

Question: What about the GI50 (DMS-273) of the same molecule?
Answer: 9.27 µM (inactive)

Question: What about the GI50 (EKVX) of the same molecule?
Answer: 12.4 µM (inactive)

Question: And the GI50 (HCC 2998)?
Answer: 17.5 µM (inactive)

Question: What about the GI50 (HCT-116) of the same molecule?
Answer: 12.5 µM (inactive)

Question: And the GI50 (HCT-15)?
Answer: 13 µM

Question: And the GI50 (HL-60)?
Answer: 2.43 µM (inactive)

Question: What about the GI50 (HOP-18) of the same molecule?
Answer: 17.9 µM (inactive)

Question: What about the GI50 (HOP-62) of the same molecule?
Answer: 19.9 µM (inactive)

Question: And the GI50 (HOP-92)?
Answer: 12.9 µM (inactive)

Question: And the GI50 (HT-29)?
Answer: 9.08 µM (inactive)

Question: And the GI50 (IGROV-1)?
Answer: 15.1 µM (inactive)

Question: What about the GI50 (K562) of the same molecule?
Answer: 12.1 µM (inactive)

Question: And the GI50 (KM-20L2)?
Answer: 16.6 µM (inactive)

Question: And the GI50 (KM12)?
Answer: 9.64 µM (inactive)

Question: And the GI50 (LOX IMVI)?
Answer: 4.45 µM (inactive)

Question: What about the GI50 (LXFL 529) of the same molecule?
Answer: 13.6 µM (inactive)

Question: What about the GI50 (M14) of the same molecule?
Answer: 10.4 µM (inactive)

Question: What about the GI50 (M19-MEL) of the same molecule?
Answer: 11.2 µM (inactive)

Question: What about the GI50 (MOLT-4) of the same molecule?
Answer: 2.03 µM (inactive)

Question: What about the GI50 (Malme-3M) of the same molecule?
Answer: 15.6 µM (inactive)

Question: What about the GI50 (NCI-H226) of the same molecule?
Answer: 19 µM (inactive)

Question: What about the GI50 (NCI-H23) of the same molecule?
Answer: 17.3 µM (inactive)

Question: And the GI50 (NCI-H460)?
Answer: 8.13 µM (inactive)

Question: What about the GI50 (NCI-H522) of the same molecule?
Answer: 6.4 µM (inactive)

Question: And the GI50 (OVCAR-3)?
Answer: 18.6 µM (inactive)

Question: And the GI50 (OVCAR-4)?
Answer: 15.6 µM (inactive)

Question: And the GI50 (OVCAR-5)?
Answer: 15.9 µM (inactive)

Question: What about the GI50 (OVCAR-8) of the same molecule?
Answer: 14.1 µM (inactive)

Question: What about the GI50 (RPMI-8226) of the same molecule?
Answer: 3.41 µM (inactive)

Question: And the GI50 (RXF 393)?
Answer: 15.8 µM (inactive)

Question: What about the GI50 (RXF 631) of the same molecule?
Answer: 7.28 µM (inactive)

Question: And the GI50 (SF-268)?
Answer: 6.12 µM (inactive)

Question: What about the GI50 (SF-295) of the same molecule?
Answer: 6.58 µM (inactive)

Question: What about the GI50 (SF-539) of the same molecule?
Answer: 1.87 µM (inactive)

Question: What about the GI50 (SK-MEL-28) of the same molecule?
Answer: 3.39 µM (inactive)

Question: What about the GI50 (SK-MEL-2) of the same molecule?
Answer: 5.01 µM (inactive)

Question: What about the GI50 (SK-MEL-5) of the same molecule?
Answer: 5.36 µM (inactive)

Question: What about the GI50 (SK-OV-3) of the same molecule?
Answer: 22.3 µM (inactive)

Question: And the GI50 (SN12C)?
Answer: 10.5 µM (inactive)

Question: And the GI50 (SNB-19)?
Answer: 10.5 µM (inactive)

Question: What about the GI50 (SNB-75) of the same molecule?
Answer: 2.3 µM (inactive)

Question: And the GI50 (SNB-78)?
Answer: 10.9 µM (inactive)

Question: And the GI50 (SR)?
Answer: 3.6 µM (inactive)

Question: What about the GI50 (SW-620) of the same molecule?
Answer: 14.3 µM (inactive)

Question: And the GI50 (TK-10)?
Answer: 21 µM (inactive)

Question: And the GI50 (U-251)?
Answer: 4 µM (inactive)

Question: What about the GI50 (UACC-257) of the same molecule?
Answer: 8.28 µM (inactive)

Question: What about the GI50 (UACC-62) of the same molecule?
Answer: 6.82 µM (inactive)

Question: What about the GI50 (UO-31) of the same molecule?
Answer: 15 µM (inactive)

Question: And the GI50 (XF498)?
Answer: 13.3 µM (inactive)
